Test results: patent US12492186B2, “Bicyclic heterocyclic compounds useful as IRAK4 inhibitors” (BRISTOL-MYERS SQUIBB COMPANY, priority 2019, dated 2025)

What follows are molecules tested against IRAK4 (Homo sapiens (Human), UniProt Q9NWZ3) (assay: IRAK4 Inhibition Assay). Details: ATP 500 μM; IRAK4 0.6 nM; 60 min room temperature; Caliper LABCHIP 3000.
Assay type: biochemical
Method: The assays were performed in U-bottom 384-well plates. The final assay volume was 30 μL prepared from 15 μL additions of enzyme and substrates (fluoresceinated peptide and ATP) and test compounds in assay buffer (20 mM HEPES pH 7.2, 10 mM MgCl2, 0.015% Brij 35 and 4 mM DTT). The reaction was initiated by the combination of IRAK4 with substrates and test compounds. The reaction mixture was incubated at room temperature for 60 min. and terminated by adding 45 μL of 35 mM EDTA to each sample. The reaction mixture was analyzed on the Caliper LABCHIP® 3000 (Caliper, Hopkinton, MA) by electrophoretic separation of the fluorescent substrate and phosphorylated product. Inhibition data were calculated by comparison to no enzyme control reactions for 100% inhibition and vehicle-only reactions for 0% inhibition. The final concentrations of reagents in the assays are ATP, 500 μM; FL-IPTSPITTTYFFFKKK peptide 1.5 μM; IRAK4, 0.6 nM; and DMSO, 1.6%.

Sequence of IRAK4 (Q9NWZ3 whole entry, species assumed): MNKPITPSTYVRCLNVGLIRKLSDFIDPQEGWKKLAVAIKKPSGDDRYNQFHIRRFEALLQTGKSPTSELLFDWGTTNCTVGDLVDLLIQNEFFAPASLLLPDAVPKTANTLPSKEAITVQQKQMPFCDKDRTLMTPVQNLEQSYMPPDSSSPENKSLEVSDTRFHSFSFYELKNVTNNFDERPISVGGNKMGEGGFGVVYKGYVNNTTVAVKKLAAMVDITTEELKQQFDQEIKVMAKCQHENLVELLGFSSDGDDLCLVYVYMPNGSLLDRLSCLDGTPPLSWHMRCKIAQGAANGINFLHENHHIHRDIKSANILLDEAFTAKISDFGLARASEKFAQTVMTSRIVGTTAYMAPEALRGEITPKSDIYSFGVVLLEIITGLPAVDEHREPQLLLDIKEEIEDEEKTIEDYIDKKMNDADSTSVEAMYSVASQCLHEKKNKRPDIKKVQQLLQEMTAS

**Q.** With `CC(C)Nc1c(C(=O)NC[C@@H](F)C(C)(C)O)cnc2ccc(-c3ccncc3)cc12` [Example 2, (R)—N-(2-fluoro-3-hydroxy-3-methylbutyl)-4-(isopropylamino)-6-(pyridin-4-yl)quinoline-3-carboxamide] as the molecule, how does the IC50 read?
**A.** 0.0259 µM

**Q.** For `CC(C)Nc1c(C(=O)NC[C@@H](F)C(C)(C)O)cnc2ccc(-c3cccnc3)cc12` [Example 3, (R)—N-(2-fluoro-3-hydroxy-3-methylbutyl)-4-(isopropylamino)-6-(pyridin-3-yl) quinoline-3-carboxamide], which IC50 is on record?
**A.** 0.0462 µM

**Q.** Which IC50 does the source give for `CC(C)Nc1c(C(=O)NC[C@@H](F)C(C)(C)O)cnc2ccc(-c3cncc(C#N)c3)cc12` [Example 4, (R)-6-(5-cyanopyridin-3-yl)-N-(2-fluoro-3-hydroxy-3-methylbutyl)-4-(isopropylamino)quinoline-3-carboxamide] here?
**A.** 0.296 µM

**Q.** `CC(C)Nc1c(C(=O)NC[C@@H](F)C(C)(C)O)cnc2ccc(-c3cncnc3)cc12` [Example 5, (R)—N-(2-fluoro-3-hydroxy-3-methylbutyl)-4-(isopropylamino)-6-(pyrimidin-5-yl)quinoline-3-carboxamide] was tested. Which IC50 did it give?
**A.** 0.0317 µM

**Q.** With `CC(C)Nc1c(C(=O)NC[C@@H](F)C(C)(C)O)cnc2ccc(-c3cccc(C#N)c3)cc12` [Example 6, (R)-6-(3-cyanophenyl)-N-(2-fluoro-3-hydroxy-3-methylbutyl)-4-(isopropylamino) quinoline-3-carboxamide] as the molecule, how does the IC50 read?
**A.** 0.145 µM

**Q.** How did the IC50 turn out when `CC(C)Nc1c(C(=O)NC2CCCOC2)cnc2ccc(-c3cn[nH]c3)cc12` (stereo not shown) [Example 8, 4-(isopropylamino)-6-(1H-pyrazol-4-yl)-N-(tetrahydro-2H-pyran-3-yl)quinoline-3-carboxamide] was run?
**A.** 0.0241 µM

**Q.** Which IC50 does the source give for `CC(C)Nc1c(C(=O)NC2CCOCC2)cnc2ccc(-c3cn[nH]c3)cc12` [Example 9, 4-(isopropylamino)-6-(1H-pyrazol-4-yl)-N-(tetrahydro-2H-pyran-4-yl)quinoline-3-carboxamide] here?
**A.** 0.0233 µM

**Q.** With `CC(C)Nc1c(C(=O)NC(CCO)C2CC2)cnc2ccc(-c3cn[nH]c3)cc12` (stereo not shown) [Example 12, N-(1-cyclopropyl-3-hydroxypropyl)-4-(isopropylamino)-6-(1H-pyrazol-4-yl)quinoline-3-carboxamide] as the molecule, how does the IC50 read?
**A.** 0.295 µM

**Q.** Which IC50 does the source give for `CC(C)Nc1c(C(=O)N[C@H](C)CCO)cnc2ccc(-c3cn[nH]c3)cc12` [Example 13, (R)—N-(4-hydroxybutan-2-yl)-4-(isopropylamino)-6-(1H-pyrazol-4-yl)quinoline-3-carboxamide] here?
**A.** 0.0883 µM

**Q.** Which IC50 does the source give for `Cc1cc(CNC(=O)c2cnc3ccc(-c4cn[nH]c4)cc3c2NC(C)C)on1` [Example 16, 4-(isopropylamino)-N-((3-methylisoxazol-5-yl)methyl)-6-(1H-pyrazol-4-yl)quinoline-3-carboxamide] here?
**A.** 0.0402 µM

**Q.** How did the IC50 turn out when `COCCNC(=O)c1cnc2ccc(-c3cn[nH]c3)cc2c1NC(C)C` [Example 18, 4-(isopropylamino)-N-(2-methoxyethyl)-6-(1H-pyrazol-4-yl)quinoline-3-carboxamide] was run?
**A.** 0.028 µM

**Q.** How did the IC50 turn out when `CC(C)Nc1c(C(=O)NCC(C)(C)CO)cnc2ccc(-c3cn[nH]c3)cc12` [Example 19, N-(3-hydroxy-2,2-dimethylpropyl)-4-(isopropylamino)-6-(1H-pyrazol-4-yl)quinoline-3-carboxamide] was run?
**A.** 0.0948 µM

**Q.** `CC(C)Nc1c(C(=O)NCC2(CO)COC2)cnc2ccc(-c3cn[nH]c3)cc12` [Example 20, N-((3-(hydroxymethyl)oxetan-3-yl)methyl)-4-(isopropylamino)-6-(1H-pyrazol-4-yl)quinoline-3-carboxamide] was tested. Which IC50 did it give?
**A.** 0.0489 µM

**Q.** Which IC50 does the source give for `CC(C)Nc1c(C(=O)NCC2(CO)CC2)cnc2ccc(-c3cn[nH]c3)cc12` [Example 21, N-((1-(hydroxymethyl)cyclopropyl)methyl)-4-(isopropylamino)-6-(1H-pyrazol-4-yl)quinoline-3-carboxamide] here?
**A.** 0.114 µM

**Q.** For `CCNc1c(C(=O)NC[C@@H](F)C(C)(C)O)cnc2ccc(-c3cncs3)cc12` [Example 28, (R)-4-(ethylamino)-N-(2-fluoro-3-hydroxy-3-methylbutyl)-6-(thiazol-5-yl)quinoline-3-carboxamide], which IC50 is on record?
**A.** 0.0812 µM

**Q.** `CC(C)Nc1c(C(N)=O)cnc2ccc(-c3cn[nH]c3)cc12` [Example 29, 4-(isopropylamino)-6-(1H-pyrazol-4-yl)quinoline-3-carboxamide] was tested. Which IC50 did it give?
**A.** 0.0217 µM

**Q.** How did the IC50 turn out when `CC(O)CNc1c(C(=O)NC[C@@H](F)C(C)(C)O)cnc2ccc(-c3cn[nH]c3)cc12` (stereo partly drawn) [Example 30, N—((R)-2-fluoro-3-hydroxy-3-methylbutyl)-4-((2-hydroxypropyl)amino)-6-(1H-pyrazol-4-yl)quinoline-3-carboxamide] was run?
**A.** 0.0242 µM

**Q.** Which IC50 does the source give for `CC(C)(O)[C@H](F)CNC(=O)c1cnc2ccc(-c3cncs3)cc2c1Nc1cnn(CC(F)F)c1` [Example 31, (R)-4-((1-(2,2-difluoroethyl)-1H-pyrazol-4-yl)amino)-N-(2-fluoro-3-hydroxy-3-methylbutyl)-6-(thiazol-5-yl)quinoline-3-carboxamide] here?
**A.** 0.43 µM

**Q.** Which IC50 does the source give for `CC(O)CNc1c(C(=O)NC[C@@H](F)C(C)(C)O)cnc2ccc(-c3cncs3)cc12` (stereo partly drawn) [Example 32, N—((R)-2-fluoro-3-hydroxy-3-methylbutyl)-4-((2-hydroxypropyl)amino)-6-(thiazol-5-yl)quinoline-3-carboxamide] here?
**A.** 0.116 µM

**Q.** Which IC50 does the source give for `CC(C)(O)[C@H](F)CNC(=O)c1cnc2ccc(-c3cn[nH]c3)cc2c1Nc1cnn(CC(F)F)c1` [Example 33, (R)-4-((1-(2,2-difluoroethyl)-1H-pyrazol-4-yl)amino)-N-(2-fluoro-3-hydroxy-3-methylbutyl)-6-(1H-pyrazol-4-yl)quinoline-3-carboxamide] here?
**A.** 0.157 µM

**Q.** With `CC(C)(O)[C@H](F)CNC(=O)c1cnc2ccc(-c3cncs3)cc2c1NC1COC1` [Example 35, (R)—N-(2-fluoro-3-hydroxy-3-methylbutyl)-4-(oxetan-3-ylamino)-6-(thiazol-5-yl) quinoline-3-carboxamide] as the molecule, how does the IC50 read?
**A.** 0.078 µM

**Q.** `CCNc1c(C(=O)NCCC(C)(C)O)cnc2ccc(-c3cncs3)cc12` [Example 37, 4-(ethylamino)-N-(3-hydroxy-3-methylbutyl)-6-(thiazol-5-yl)quinoline-3-carboxamide] was tested. Which IC50 did it give?
**A.** 0.11 µM

**Q.** How did the IC50 turn out when `CCNc1c(C(=O)NCCC(C)(C)O)cnc2ccc(-c3cn[nH]c3)cc12` [Example 38, 4-(ethylamino)-N-(3-hydroxy-3-methylbutyl)-6-(1H-pyrazol-4-yl)quinoline-3-carboxamide] was run?
**A.** 0.0492 µM

**Q.** How did the IC50 turn out when `CC(C)Nc1c(C(=O)N[C@H]2C[C@@H](O)C2)cnc2ccc(-c3cn[nH]c3)cc12` [Example 39, N-((1s,3s)-3-hydroxycyclobutyl)-4-(isopropylamino)-6-(1H-pyrazol-4-yl)quinoline-3-carboxamide] was run?
**A.** 0.0386 µM

**Q.** For `CC(C)(O)CCNC(=O)c1cnc2ccc(-c3cn[nH]c3)cc2c1NC1COC1` [Example 40, N-(3-hydroxy-3-methylbutyl)-4-(oxetan-3-ylamino)-6-(1H-pyrazol-4-yl)quinoline-3-carboxamide], which IC50 is on record?
**A.** 0.0335 µM

**Q.** Which IC50 does the source give for `CC(C)(O)CCNC(=O)c1cnc2ccc(-c3cncs3)cc2c1NC1COC1` [Example 41, N-(3-hydroxy-3-methylbutyl)-4-(oxetan-3-ylamino)-6-(thiazol-5-yl)quinoline-3-carboxamide] here?
**A.** 0.21 µM

**Q.** How did the IC50 turn out when `CNC(=O)CCNC(=O)c1cnc2ccc(-c3cn[nH]c3)cc2c1NC(C)C` [Example 48, 4-(isopropylamino)-N-(3-(methylamino)-3-oxopropyl)-6-(1H-pyrazol-4-yl)quinoline-3-carboxamide] was run?
**A.** 0.0307 µM

**Q.** Which IC50 does the source give for `CC(C)Nc1c(C(=O)NCCC(=O)N(C)C)cnc2ccc(-c3cn[nH]c3)cc12` [Example 49, N-(3-(dimethylamino)-3-oxopropyl)-4-(isopropylamino)-6-(1H-pyrazol-4-yl)quinoline-3-carboxamide] here?
**A.** 0.0298 µM

**Q.** With `CC(C)Nc1c(C(=O)NCCC(=O)N2CCCC2)cnc2ccc(-c3cn[nH]c3)cc12` [Example 50, 4-(isopropylamino)-N-(3-oxo-3-(pyrrolidin-1-yl)propyl)-6-(1H-pyrazol-4-yl)quinoline-3-carboxamide] as the molecule, how does the IC50 read?
**A.** 0.0327 µM

**Q.** Which IC50 does the source give for `CC(C)(O)CCNC(=O)c1cnc2ccc(-c3cn[nH]c3)cc2c1NC1CC(F)(F)C1` [Example 52, 4-((3,3-difluorocyclobutyl)amino)-N-(3-hydroxy-3-methylbutyl)-6-(1H-pyrazol-4-yl)quinoline-3-carboxamide] here?
**A.** 0.0239 µM

**Q.** For `CC(O)CCNC(=O)c1cnc2ccc(-c3cn[nH]c3)cc2c1NC1CC(F)(F)C1` (stereo not shown) [Example 53, 4-((3,3-difluorocyclobutyl)amino)-N-(3-hydroxybutyl)-6-(1H-pyrazol-4-yl)quinoline-3-carboxamide], which IC50 is on record?
**A.** 0.0326 µM

**Q.** For `O=C(NCCC(F)(F)F)c1cnc2ccc(-c3cn[nH]c3)cc2c1NC1CC(F)(F)C1` [Example 55, 4-((3,3-difluorocyclobutyl)amino)-6-(1H-pyrazol-4-yl)-N-(3,3,3-trifluoropropyl)quinoline-3-carboxamide], which IC50 is on record?
**A.** 0.0531 µM

**Q.** How did the IC50 turn out when `O=C(NCCC1CC1)c1cnc2ccc(-c3cn[nH]c3)cc2c1NC1CC(F)(F)C1` [Example 56, N-(2-cyclopropylethyl)-4-((3,3-difluorocyclobutyl)amino)-6-(1H-pyrazol-4-yl)quinoline-3-carboxamide] was run?
**A.** 0.0197 µM

**Q.** Which IC50 does the source give for `CC(=O)NC1CC(NC(=O)c2cnc3ccc(-c4cn[nH]c4)cc3c2NC2CC(F)(F)C2)C1` (stereo not shown) [Example 57, N-((1r,3r)-3-acetamidocyclobutyl)-4-((3,3-difluorocyclobutyl)amino)-6-(1H-pyrazol-4-yl)quinoline-3-carboxamide] here?
**A.** 0.0226 µM
